Measured values reported in the NIST ThermoML archive (doi:10.1016/j.fluid.2013.08.005).
± gives the expanded uncertainty stated by the source.

Experiment: mn = molality of the nth substance listed, in mol/kg
Details: 298.15 K, 101 kPa, Liquid; for electrical conductivity: Alternating current cell with electrodes; for mass density: Vibrating tube method

CCCCCC[N+](C)(C)C.[Br-] [hexyltrimethylammonium bromide] + O
Details | electrical conductivity [S/m] | mass density [kg/m3]
m1 = 0.02501 | 0.446 ± 0.018 | 997.79 ± 0.08
m1 = 0.05001 | 0.641 ± 0.026 | 998.57 ± 0.08
m1 = 0.07505 | 0.99 ± 0.04 | 999.34 ± 0.08
m1 = 0.125 | 1.02 ± 0.041 | 1000.88 ± 0.08
m1 = 0.13 | 1.15 ± 0.046 | 1001.05 ± 0.08
m1 = 0.15 | 1.3 ± 0.052 | 1001.64 ± 0.08
m1 = 0.1751 | 1.72 ± 0.069 | 1002.41 ± 0.08
m1 = 0.25 | 1.85 ± 0.074 | 1004.69 ± 0.08
m1 = 0.2751 | 2.08 ± 0.083 | 1005.39 ± 0.08
m1 = 0.3251 | 2.2 ± 0.088 | 1006.85 ± 0.09
m1 = 0.3501 | 2.41 ± 0.096 | 1007.63 ± 0.09
m1 = 0.4001 | 2.51 ± 0.1 | 1009.06 ± 0.09
m1 = 0.425 | 2.79 ± 0.11 | 1009.77 ± 0.09
m1 = 0.5001 | 3.53 ± 0.14 | 1011.89 ± 0.09
m1 = 0.7503 | 3.83 ± 0.15 | 1018.71 ± 0.1
m1 = 0.8791 | 4.07 ± 0.16 | 1021.99 ± 0.11
m1 = 1 | 0.239 ± 0.0095 | 1025.02 ± 0.11
m1 = 1.501 | – | 1036.33 ± 0.15
m1 = 2.001 | – | 1046 ± 0.18
